Results taken from the supplement of paper PMC12350171.

How the values were obtained:
[1] = tested on: Com21 synthetic gut community; assay: community biomass OD578 after 24 h drug treatment relative to untreated (fraction of untreated control); higher = more community growth; conditions: community: Com21 (Com20 + E. coli ED1a)
Method: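 Com21 (Com20 plus E. coli ED1a) was treated with drug for 24 h under anaerobic conditions in mGAM. Community OD578 was then measured and normalised to untreated Com21; mean of 3 biological replicates.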

[2] = tested on: Fusobacterium nucleatum subsp. Nucleatum; assay: IC25 growth inhibition; higher = less potent
Procedure, shortened: (§1)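 Monocultures grown overnight in mGAM were added to pre-reduced plates holding twofold drug dilutions, giving a starting OD578 of 0.01 and 1% DMSO (or water). Growth was followed anaerobically by hourly OD578 readings in a plate reader, with at least three biological replicates. The median growth-curve AUC per concentration was forced to be monotonic. IC25 was the lowest concentration with median AUC below 0.75, reported as a tested interval.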

[3] = tested on: Bacteroides thetaiotaomicron; assay: IC25 growth inhibition; higher = less potent
Procedure, shortened: as §1

[4] = tested on: Coprococcus comes; assay: IC25 growth inhibition; higher = less potent
Procedure, shortened: as §1

[5] = tested on: Collinsella aerofaciens; assay: IC25 growth inhibition; higher = less potent
Procedure, shortened: as §1

[6] = tested on: Eubacterium rectale; assay: IC25 growth inhibition; higher = less potent
Procedure, shortened: as §1

[7] = tested on: Yersinia pseudotuberculosis; assay: IC25 growth inhibition; higher = less potent
Procedure, shortened: as §1

[8] = tested on: Roseburia intestinalis; assay: IC25 growth inhibition; higher = less potent
Procedure, shortened: as §1

[9] = tested on: Yersinia enterocolitica WA-314; assay: IC25 growth inhibition; higher = less potent
Procedure, shortened: as §1

[10] = tested on: Clostridium ramosum; assay: IC25 growth inhibition; higher = less potent
Procedure, shortened: as §1

[11] = tested on: Shigella flexneri; assay: IC25 growth inhibition; higher = less potent
Procedure, shortened: as §1

[12] = tested on: Clostridium bolteae; assay: IC25 growth inhibition; higher = less potent
Procedure, shortened: as §1

[13] = tested on: Vibrio cholerae; assay: IC25 growth inhibition; higher = less potent
Procedure, shortened: as §1

[14] = tested on: Bacteroides fragilis NT; assay: IC25 growth inhibition; higher = less potent
Procedure, shortened: as §1

[15] = tested on: Dorea formicigenerans; assay: IC25 growth inhibition; higher = less potent
Procedure, shortened: as §1

[16] = tested on: Parabacteroides merdae; assay: IC25 growth inhibition; higher = less potent
Procedure, shortened: as §1

[17] = tested on: Streptococcus parasanguinis; assay: IC25 growth inhibition; higher = less potent
Procedure, shortened: as §1

[18] = tested on: Salmonella enterica typhimurium; assay: IC25 growth inhibition; higher = less potent
Procedure, shortened: as §1

[19] = tested on: Clostridium perfringens; assay: IC25 growth inhibition; higher = less potent
Procedure, shortened: as §1

[20] = tested on: Bacteroides vulgatus; assay: IC25 growth inhibition; higher = less potent
Procedure, shortened: as §1

[21] = tested on: Clostridium saccharolyticum; assay: IC25 growth inhibition; higher = less potent
Procedure, shortened: as §1

[22] = tested on: Ruminococcus gnavus; assay: IC25 growth inhibition; higher = less potent
Procedure, shortened: as §1

[23] = tested on: Escherichia coli ED1a; assay: IC25 growth inhibition; higher = less potent
Procedure, shortened: as §1

[24] = tested on: Bacteroides uniformis; assay: IC25 growth inhibition; higher = less potent
Procedure, shortened: as §1

[25] = tested on: Streptococcus salivarius; assay: IC25 growth inhibition; higher = less potent
Procedure, shortened: as §1

[26] = drug pretreatment concentration 10 µM
[27] = drug pretreatment concentration 20 µM
[28] = drug pretreatment concentration 40 µM
[29] = drug pretreatment concentration 80 µM
[30] = drug pretreatment concentration 160 µM
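Wherever IC25 growth inhibition is given: lowest concentration where monotonic median growth AUC falls below 0.75 of drug-free control.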

Compound	community biomass OD578 [1, 26]	community biomass OD578 [1, 27]	community biomass OD578 [1, 28]	community biomass OD578 [1, 29]	community biomass OD578 [1, 30]	IC25 growth inhibition [2] [µM]	IC25 growth inhibition [3] [µM]	IC25 growth inhibition [4] [µM]	IC25 growth inhibition [5] [µM]	IC25 growth inhibition [6] [µM]	IC25 growth inhibition [7] [µM]	IC25 growth inhibition [8] [µM]	IC25 growth inhibition [9] [µM]	IC25 growth inhibition [10] [µM]	IC25 growth inhibition [11] [µM]	IC25 growth inhibition [12] [µM]	IC25 growth inhibition [13] [µM]	IC25 growth inhibition [14] [µM]	IC25 growth inhibition [15] [µM]	IC25 growth inhibition [16] [µM]	IC25 growth inhibition [17] [µM]	IC25 growth inhibition [18] [µM]	IC25 growth inhibition [19] [µM]	IC25 growth inhibition [20] [µM]	IC25 growth inhibition [21] [µM]	IC25 growth inhibition [22] [µM]	IC25 growth inhibition [23] [µM]	IC25 growth inhibition [24] [µM]	IC25 growth inhibition [25] [µM]	community biomass OD578 ([1]; drug pretreatment concentration 2.5 µM)	community biomass OD578 ([1]; drug pretreatment concentration 5 µM)
C[C@H]1O[C@H](O[C@H]2[C@H](O)[C@@H](O)[C@@H](O[C@H]3[C@H](O)[C@@H](O)C(O)O[C@@H]3CO)O[C@@H]2CO)[C@H](O)[C@@H](O)[C@@H]1N[C@H]1C=C(CO)[C@@H](O)[C@H](O)[C@H]1O (stereo partly drawn) [Acarbose]	1.03	1.01	1	1	0.989	> 160	> 160	> 160	> 160	≤ 40	> 160	≤ 20	> 160	> 160	> 160	> 160	> 160	≤ 10	> 160	> 160	> 160	> 160	> 160	≤ 40	> 160	> 160	> 160	> 160	> 160		
C[C@@H](O[C@H]1OCCN(Cc2n[nH]c(=O)[nH]2)[C@H]1c1ccc(F)cc1)c1cc(C(F)(F)F)cc(C(F)(F)F)c1 [Aprepitant]	1	0.981	0.788	1.03	1.01	> 160	> 160	> 160	> 80	> 160	> 80	> 160	> 160	> 160	> 160	> 160	> 160	> 160	> 160	> 160	> 160	> 160	> 160	> 160	> 160	> 160	> 160	> 160	> 160		
CCc1oc2ccccc2c1C(=O)c1cc(Br)c(O)c(Br)c1 [Benzbromarone]	0.877	0.86	0.812	0.687	0.301	≤ 80	≤ 20	≤ 40	≤ 40	≤ 20	> 160	≤ 40	> 160	≤ 20	> 160	≤ 40	≤ 160	≤ 20	≤ 40	≤ 20	≤ 10	> 160	≤ 10	≤ 20	≤ 10	≤ 20	> 160	≤ 10	≤ 10		
CN(C)CCCN1c2ccccc2Sc2ccc(Cl)cc21 [Chlorpromazine]	1	0.983	0.941	0.927	0.813	≤ 80	≤ 80	≤ 160	≤ 160	≤ 40	≤ 160	≤ 80	> 160	> 160	≤ 160	≤ 160	≤ 160	≤ 80	≤ 40	≤ 40	≤ 160	> 160	≤ 80	≤ 40	≤ 80	≤ 40	≤ 160	≤ 80	≤ 80		
CN(C)CC/C=C1/c2ccccc2Sc2ccc(Cl)cc21 [Chlorprothixene]	0.988	1.02	0.99	0.965	0.48	≤ 80	≤ 40	≤ 160	≤ 160	≤ 80	≤ 160	≤ 40	> 160	> 160	≤ 160	≤ 160	≤ 20	≤ 80	≤ 40	≤ 160	> 160	> 160	≤ 80	≤ 40	≤ 80	≤ 160	> 160	≤ 40	≤ 160		
COCCOC(=O)C1=C(C)NC(C)=C(C(=O)OC/C=C/c2ccccc2)C1c1cccc([N+](=O)[O-])c1 (stereo not drawn) [Cilnidipine]	1.06	1.03	0.993			> 10	> 10	> 10	> 10	> 10	> 10	> 10	> 5	> 5	> 10	> 10	> 10	> 10	> 10	> 20	> 20	> 5	> 20	> 10	> 10	> 20	> 40	> 40	> 10	1.03	1
Clc1ccc(Cn2c(CN3CCCC3)nc3ccccc32)cc1 [Clemizole]	1.01	1	1.03	1.02	0.964	≤ 160	≤ 160	≤ 2.5	≤ 20	≤ 2.5	> 160	≤ 5	> 160	≤ 10	> 160	> 160	≤ 80	> 160	≤ 2.5	≤ 160	> 160	> 160	≤ 160	≤ 160	≤ 80	≤ 10	> 160	> 160	> 160		
